As a reminder, the pIC50 is −log10 of the IC50, conventionally taken in molar units.

pIC50: −log10 of the molar value.

Results on 34 compounds are retold here after patent US20230293518A1 (Edgewise Therapeutics, Inc., priority 2020, published 2023).

In the first experiment the target is skeletal myofibrils (myosin ATPase). As to the kind of experiment: Skeletal Myofibril ATPase Assay. The conditions noted are these: Table 4A. Type of experiment: biochemical. As to the method:
Example 12. Skeletal Myofibril ATPase Assay
Overview: Myosin ATPase activity is assessed by using a coupled reaction system, in which ADP generated by the myosin ATPase function is coupled to the disappearance of NADH through the pyruvate kinase/lactate dehydrogenase (PK-LDH) system. ATPase activity produces ADP, which is used as a substrate for PK to produce pyruvate and regenerate ATP. The pyruvate is then used as a substrate by LDH to oxidize NADH to NAD+. The rate of the reaction is monitored through the time-dependent disappearance of NADH using absorbance at 340 nm. Inhibition of ATPase activity by the assayed compounds is indicated by a reduced rate of NADH loss, relative to vehicle-treated controls, over the experimental time window. To assess the selectivity of the assayed compounds for skeletal myofibrils, the compounds are counter-screened in cardiac myofibrils.
Materials: The following stock solutions and reagents were used in the Skeletal Myofibril ATPase Assay:
Stock Solutions of pCa buffer. Combine PIPES, CaCl2, and EGTA solutions with 70 mL of water. Adjust pH to 7.0 and bring final volume to 100 mL.
Buffer A & Buffer B. Buffers were stored on ice until use.
Skeletal Myofibril ATPase Assay Procedure: BSA, ATP, NADH, PEP, and DTT solutions were thawed at room temperature, then transferred to ice. Pellet-frozen myofibrils were transferred with approximately twice the required volume into a sufficiently large tube and capped. Myofibrils were thawed by rolling in a water bath for approximately 15 min at room temperature and cooled on ice. Buffers A and B were prepared by adjusting volumes as necessary for required number of wells and stored on ice. 0.5 μL of the compounds to be assayed were added into wells. 25 μL of Buffer A was dispensed into the wells, followed by 25 μL of Buffer B. The wells were measured for absorbance at 340 nm, using a kinetic protocol in which the wells are read every 1.5-2 min for 45 min. The slope of the data was approximated by subtracting the minimum absorbance value from the maximum value for each well. This was accomplished either in the SoftMax Pro software or in a spreadsheet program such as Excel. Using GraphPad Prism 8.0, the data was normalized by assigning a value of 100% to the 1% DMSO vehicle wells. Typically, a normalized 0% value was simply assigned to a (Max−Min) value of 0. The normalized data was fit to a Four Parameter Logistic sigmoidal equation, constraining the bottom to be 0 or greater. Compounds of Table 1, 2, and 3 were tested and results of the assay appear in Tables 4a-4c. A=IC50 is less than or equal to 10 μM; B═IC50 is greater than 10 μM and less than 100 μM; C═IC50 is greater than 100 μM.
`CCNC(=O)Cn1nc(-c2ccc(OC(F)F)[n+]([O-])c2)ccc1=O` [Compound I-65, 2-(difluoromethoxy)-5-(1-(2-(ethylamino)-2-oxoethyl)-6-oxo-1,6-dihydropyridazin-3-yl)pyridine 1-oxide] showed a negative logarithm of the IC50 (pIC50) of less than 4.00.
`CC[C@@H](C)NC(=O)Cn1nc(-c2ccc(OC(F)F)nc2)ccc1=O` [Compound I-66, (R)-N-(sec-butyl)-2-(3-(6-(difluoromethoxy)pyridin-3-yl)-6-oxopyridazin-1(6H)-yl)acetamide] showed a pIC50 of more than 5.00.
Still for that read-out and setting: as for `CC[C@H](C)NC(=O)Cn1nc(-c2ccc(OC(F)F)nc2)ccc1=O` [Compound I-67, (S)-N-(sec-butyl)-2-(3-(6-(difluoromethoxy)pyridin-3-yl)-6-oxopyridazin-1(6H)-yl)acetamide], the figure is more than 5.00.
In the case of `O=C(Cn1nc(-c2ccc(OC(F)F)nc2)ccc1=O)NC1(c2ccccc2)CCC1` [Compound I-68, 2-(3-(6-(difluoromethoxy)pyridin-3-yl)-6-oxopyridazin-1(6H)-yl)-N-(1-phenylcyclobutyl) acetamide], the negative logarithm of the IC50 (pIC50) was more than 5.00.
Still for that read-out and setting: as for `O=C(Cn1nc(-c2ccc(OC(F)F)nc2)ccc1=O)NCc1ccccc1Cl` [Compound I-69, N-(2-chlorobenzyl)-2-(3-(6-(difluoromethoxy)pyridin-3-yl)-6-oxopyridazin-1(6H)-yl)acetamide], the figure is more than 5.00; as for `O=C(Cn1nc(-c2ccc(OC(F)F)nc2)ccc1=O)NCc1ccc(Cl)cc1` [Compound I-70, N-(4-chlorobenzyl)-2-(3-(6-(difluoromethoxy)pyridin-3-yl)-6-oxopyridazin-1(6H)-yl)acetamide], more than 5.00; as for `O=C(Cn1nc(-c2cnc(OCC(F)(F)F)nc2)ccc1=O)NC1CCC1` [Compound I-71, N-cyclobutyl-2-(6-oxo-3-(2-(2,2,2-trifluoroethoxy)pyrimidin-5-yl)pyridazin-1(6H)-yl)acetamide], more than 5.00.
On the same count and under the same terms, as for `O=C(Cn1nc(-c2cnc(OCCOC(F)(F)F)nc2)ccc1=O)NC1CCC1` [Compound I-72, N-cyclobutyl-2-(6-oxo-3-(2-(2-(trifluoromethoxy)ethoxy)pyrimidin-5-yl)pyridazin-1(6H)-yl)acetamide], the figure is more than 5.00.
`CCCOc1ncc(-c2ccc(=O)n(CC(=O)NC3CCC3)n2)cn1` [Compound I-73, N-cyclobutyl-2-(6-oxo-3-(2-propoxypyrimidin-5-yl)pyridazin-1(6H)-yl)acetamide] gave a negative logarithm of the IC50 (pIC50) of more than 5.00.
Same read-out and setting: as for `CCNC(=O)Cn1nc(-c2ccc(NC3CC(F)(F)C3)nc2)ccc1=O` [Compound I-74, 2-(3-(6-((3,3-difluorocyclobutyl)amino)pyridin-3-yl)-6-oxopyridazin-1(6H)-yl)-N-ethylacetamide], the figure is 4.00 to 5.00; as for `CCNC(=O)Cn1nc(-c2ccc(OC3CC(F)(F)C3)nc2)ccc1=O` [Compound I-75, 2-(3-(6-(3,3-difluorocyclobutoxy)pyridin-3-yl)-6-oxopyridazin-1(6H)-yl)-N-ethylacetamide], 4.00 to 5.00; as for `O=C(Cn1nc(-c2ccc(OC(F)F)nc2)ccc1=O)NCc1cccc(Cl)c1` [Compound I-76, N-(3-chlorobenzyl)-2-(3-(6-(difluoromethoxy)pyridin-3-yl)-6-oxopyridazin-1(6H)-yl)acetamide], 4.00 to 5.00.
For the compound `CCNC(=O)Cn1nc(-c2cnc(OCC3CC(F)(F)C3)nc2)ccc1=O` [Compound I-77, 2-(3-(2-((3,3-difluorocyclobutyl)methoxy)pyrimidin-5-yl)-6-oxopyridazin-1(6H)-yl)-N-ethylacetamide], the negative-log IC50 (pIC50) is 4.00 to 5.00.
`CCNC(=O)Cn1nc(-c2cnc(Oc3ccc(Cl)cc3)nc2)ccc1=O` [Compound I-78, 2-(3-(2-(4-chlorophenoxy)pyrimidin-5-yl)-6-oxopyridazin-1(6H)-yl)-N-ethylacetamide] gave a pIC50 of 4.00 to 5.00.
Compound `CC(C)COc1ncc(-c2ccc(=O)n(CC(=O)NC3CCC3)n2)cn1` [Compound I-79, N-cyclobutyl-2-[3-[2-(2-methylpropoxy)pyrimidin-5-yl]-6-oxopyridazin-1-yl]acetamide] had a negative logarithm of the IC50 (pIC50) of less than 4.00.

The same experiment, now with this note: Table 4B.
`CCNC(=O)Cn1nc(-c2ccc(OC(C)(F)F)cc2)ccc1=O` [II-1, 2-(3-(4-(1,1-difluoroethoxy)phenyl)-6-oxopyridazin-1(6H)-yl)-N-ethylacetamide] had a pIC50 of more than 5.00.
The same measure, in the same setting: as for `CCNC(=O)Cn1nc(-c2ccc(NC(C)=O)cc2)ccc1=O` [II-2, 2-(3-(4-acetamidophenyl)-6-oxopyridazin-1(6H)-yl)-N-ethylacetamide], the figure is more than 5.00; as for `O=C(Cn1nc(-c2ccc(OC(F)F)cc2)ccc1=O)NCc1ccccc1Cl` [II-3, N-(2-chlorobenzyl)-2-(3-(4-(difluoromethoxy)phenyl)-6-oxopyridazin-1(6H)-yl)acetamide], more than 5.00.
For `CC(C)NC(=O)Cn1nc(-c2ccc(OC(F)(F)F)cc2)ccc1=O` [II-4, N-isopropyl-2-(6-oxo-3-(4-(trifluoromethoxy)phenyl)pyridazin-1(6H)-yl)acetamide], the pIC50 was more than 5.00.
In the case of `CCNC(=O)Cn1nc(-c2ccc(OC(F)(F)F)cc2)ccc1=O` [II-5, N-ethyl-2-(6-oxo-3-(4-(trifluoromethoxy)phenyl)pyridazin-1(6H)-yl)acetamide], the pIC50 was more than 5.00.
Compound `CCNC(=O)Cn1nc(-c2ccc(OCC(F)(F)F)cc2)ccc1=O` [II-6, N-ethyl-2-(6-oxo-3-(4-(2,2,2-trifluoroethoxy)phenyl)pyridazin-1(6H)-yl)acetamide] showed a pIC50 of more than 5.00.
On the same count and under the same terms, as for `CCNC(=O)Cn1nc(-c2ccc(OCC(F)F)cc2)ccc1=O` [II-7, 2-(3-(4-(2,2-difluoroethoxy)phenyl)-6-oxopyridazin-1(6H)-yl)-N-ethylacetamide], the figure is more than 5.00.
Same read-out and setting: as for `CC(=O)Nc1ccc(-c2ccc(=O)n(CC(=O)NCc3ccccc3Cl)n2)cc1` [II-8, 2-(3-(4-acetamidophenyl)-6-oxopyridazin-1(6H)-yl)-N-(2-chlorobenzyl) acetamide], the figure is more than 5.00; as for `O=C(Cn1nc(-c2ccc(OC(F)F)cc2)ccc1=O)NC1CCC1` [II-9, N-cyclobutyl-2-(3-(4-(difluoromethoxy)phenyl)-6-oxopyridazin-1(6H)-yl)acetamide], more than 5.00; as for `CCNC(=O)Cn1nc(-c2ccc(OC(F)F)cc2)ccc1=O` [II-10, 2-(3-(4-(difluoromethoxy)phenyl)-6-oxopyridazin-1(6H)-yl)-N-ethylacetamide], more than 5.00.
`O=C(Cn1nc(-c2ccc(OC(F)F)cc2)ccc1=O)NCC(F)(F)F` [II-11, 2-(3-(4-(difluoromethoxy)phenyl)-6-oxopyridazin-1(6H)-yl)-N-(2,2,2-trifluoroethyl) acetamide] gave a pIC50 of 4.00 to 5.00.
On to `CCCNC(=O)Cn1nc(-c2ccc(OC(F)F)cc2)ccc1=O` [II-12, 2-(3-(4-(difluoromethoxy)phenyl)-6-oxopyridazin-1(6H)-yl)-N-propylacetamide], for which the negative-log IC50 (pIC50) is 4.00 to 5.00.
For the compound `CC(C)CNC(=O)Cn1nc(-c2ccc(OC(F)F)cc2)ccc1=O` [II-13, 2-(3-(4-(difluoromethoxy)phenyl)-6-oxopyridazin-1(6H)-yl)-N-isobutylacetamide], the negative-log IC50 (pIC50) was 4.00 to 5.00.
`CC(=O)Nc1ccc(-c2ccc(=O)n(CC(=O)NC(C)C)n2)cc1` [II-14, 2-(3-(4-acetamidophenyl)-6-oxopyridazin-1(6H)-yl)-N-isopropylacetamide] showed a negative logarithm of the IC50 (pIC50) of 4.00 to 5.00.
The compound `O=C(Cn1nc(-c2ccc(OC(F)F)cc2)ccc1=O)NCC(F)F` [II-15, N-(2,2-difluoroethyl)-2-(3-(4-(difluoromethoxy)phenyl)-6-oxopyridazin-1(6H)-yl)acetamide] had a negative-log IC50 (pIC50) of 4.00 to 5.00.
`CC(C)(C)NC(=O)Cn1nc(-c2ccc(OC(F)F)cc2)ccc1=O` [II-16, N-(tert-butyl)-2-(3-(4-(difluoromethoxy)phenyl)-6-oxopyridazin-1(6H)-yl)acetamide] had a negative-log IC50 (pIC50) of 4.00 to 5.00.
Same read-out and setting: as for `CCCCNC(=O)Cn1nc(-c2ccc(OC(F)F)cc2)ccc1=O` [II-17, N-butyl-2-(3-(4-(difluoromethoxy)phenyl)-6-oxopyridazin-1(6H)-yl)acetamide], the figure is 4.00 to 5.00; as for `O=C(Cn1nc(-c2ccc(OC(F)F)cc2)ccc1=O)NCC1CCC1` [II-18, N-(cyclobutylmethyl)-2-(3-(4-(difluoromethoxy)phenyl)-6-oxopyridazin-1(6H)-yl)acetamide], 4.00 to 5.00.
`CCNC(=O)Cn1nc(-c2ccc(OC(F)F)cc2)c(C)cc1=O` [II-19, 2-(3-(4-(difluoromethoxy)phenyl)-4-methyl-6-oxopyridazin-1(6H)-yl)-N-ethylacetamide] showed a negative-log IC50 (pIC50) of 4.00 to 5.00.
